In BindingDB's records for doi:10.1254/jjp.52.195 (Niigata College of Pharmacy, 1990):
pKi: −log10 of the molar value.

What was measured:
[1] = biological target: Beta-1 adrenergic receptor (Rattus norvegicus, UniProt P18090)
[2] = biological target: 5-hydroxytryptamine receptor 1B (Rattus norvegicus, UniProt P28564)
[3] = biological target: Beta-2 adrenergic receptor (Rattus norvegicus, UniProt P10608)
Chain of Beta-2 adrenergic receptor (P10608 whole entry): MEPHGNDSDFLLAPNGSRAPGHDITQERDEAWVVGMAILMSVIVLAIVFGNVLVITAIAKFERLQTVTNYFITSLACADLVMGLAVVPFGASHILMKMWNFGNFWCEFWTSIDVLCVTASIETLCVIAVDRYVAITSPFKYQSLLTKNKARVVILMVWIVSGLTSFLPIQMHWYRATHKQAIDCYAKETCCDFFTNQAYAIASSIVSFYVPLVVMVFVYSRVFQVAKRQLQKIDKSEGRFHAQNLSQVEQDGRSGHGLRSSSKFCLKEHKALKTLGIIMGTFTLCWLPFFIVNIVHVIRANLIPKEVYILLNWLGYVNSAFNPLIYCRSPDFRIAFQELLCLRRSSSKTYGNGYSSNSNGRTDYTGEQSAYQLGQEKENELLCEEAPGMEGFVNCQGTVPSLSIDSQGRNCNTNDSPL

Chain of Beta-1 adrenergic receptor (P18090 whole entry): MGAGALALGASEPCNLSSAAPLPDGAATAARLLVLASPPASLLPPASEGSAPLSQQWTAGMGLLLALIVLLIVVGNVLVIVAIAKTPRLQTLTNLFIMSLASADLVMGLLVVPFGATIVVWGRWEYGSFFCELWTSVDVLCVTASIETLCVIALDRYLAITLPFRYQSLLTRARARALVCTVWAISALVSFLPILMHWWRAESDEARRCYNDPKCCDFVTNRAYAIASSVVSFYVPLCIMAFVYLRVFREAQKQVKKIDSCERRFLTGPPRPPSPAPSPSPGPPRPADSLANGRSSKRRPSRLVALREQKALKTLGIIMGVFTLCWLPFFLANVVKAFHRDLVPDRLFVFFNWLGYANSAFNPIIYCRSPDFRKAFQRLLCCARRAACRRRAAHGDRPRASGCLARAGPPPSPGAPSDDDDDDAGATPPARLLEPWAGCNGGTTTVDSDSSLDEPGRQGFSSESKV
Chain of 5-hydroxytryptamine receptor 1B (P28564 whole entry): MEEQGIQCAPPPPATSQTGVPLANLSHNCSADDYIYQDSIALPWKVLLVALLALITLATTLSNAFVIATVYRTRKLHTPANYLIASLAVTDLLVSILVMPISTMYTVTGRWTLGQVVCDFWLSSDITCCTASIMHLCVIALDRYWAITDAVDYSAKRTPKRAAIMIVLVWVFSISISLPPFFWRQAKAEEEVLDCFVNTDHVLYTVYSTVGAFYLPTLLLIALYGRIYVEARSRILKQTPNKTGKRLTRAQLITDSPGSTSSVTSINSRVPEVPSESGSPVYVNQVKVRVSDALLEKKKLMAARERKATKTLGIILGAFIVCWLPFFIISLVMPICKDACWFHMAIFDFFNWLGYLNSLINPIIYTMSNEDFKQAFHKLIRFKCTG

SMILES | pKi [1] | pKi [2] | pKi [3]
C=CCOc1ccccc1OCC(O)CNC(C)C (stereo not drawn) | 8.11 | 6.76 | 8.01
CC(C)CNCC(O)COc1cccc2ccccc12 (stereo not drawn) | 8.55 | 7.25 | 8.61
CC(C)NCC(O)c1ccc(NS(C)(=O)=O)cc1 (racemic) [Sotalol,(-)] | – | < 5.00 | –
CC(CCc1ccccc1)NCC(O)c1ccc(O)c(C(N)=O)c1 (stereo not drawn) [2-hydroxy-5-{1-hydroxy-2-[(4-phenylbutan-2-yl)amino]ethyl}benzamide] | 7.92 | 5.70 | –
C=CCc1ccccc1OC[C@@H](O)CNC(C)C [ALPRENOLOL,(-)] | – | 7.15 | –
COCCc1ccc(OCC(O)CNC(C)C)cc1 (stereo not drawn) [Betalok] | – | < 5.00 | –
COc1ccc(OC)c([C@@H](O)[C@H](C)NC(C)(C)C)c1 [CAS_1937-89-9] | 5.43 | < 5.00 | 6.33
CC(C)(C)NCC(O)CSc1nc(-c2ccc(C(N)=O)s2)cs1 (stereo not drawn) [CAS_52560-77-7] | 9.74 | 7.97 | 9.26
COc1ccccc1OCCNCC(O)c1ccc(C)c(S(N)(=O)=O)c1 (stereo not drawn) [CAS_93633-92-2] | 8.36 | 5.89 | 7.88
Cc1ccc(OC[C@@H](O)[C@H](C)NC(C)C)c2c1CCC2 [ICI 118,551] | 6.71 | 5.41 | –
CC(C)NCC(O)COc1cccc2[nH]ccc12 (stereo not drawn) [LB-46] | 9.18 | – | –
CC(=O)Nc1ccc(OCC(O)CNC(C)C)cc1 (stereo not drawn) [Practolol,(-)] | 6.61 | < 5.00 | –
CC(C)NC[C@H](O)COc1ccc(CCOCC2CC2)cc1 [[(2S)-3-{4-[2-(cyclopropylmethoxy)ethyl]phenoxy}-2-hydroxypropyl](propan-2-yl)amine] | – | < 5.00 | –
COCCc1ccc(OC[C@H](O)CNC(C)C)cc1 [d-Metoprolol] | – | < 5.00 | –
COCCc1ccc(OC[C@@H](O)CNC(C)C)cc1 [l-Metoprolol] | – | < 5.00 | –
